From PubChem BioAssay (NCI) come the findings set out here.

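Five concentrations, 48 hours, 96-well plates. Abbreviation: GI50, concentration required for 50% inhibition of growth. TGI denotes the concentration required for complete inhibition of growth.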

Among the test systems are UO-31 renal; SK-MEL-5 melanoma; PC-3 prostate; EKVX NSCLC; OVCAR-8 ovarian; NCI-H23 lung; SK-MEL-2 melanoma; ACHN renal; A498 renal.
Common to all, as to experiment: NCI-60 cell line screen, 48 h

On to `Cc1nc2c(cc1C(=O)NN)c(=O)n(C)c(=O)n2C`, for which the TGI with UO-31 renal, with SK-MEL-5 melanoma, in the test with PC-3 prostate, in the test with EKVX NSCLC, with OVCAR-8 ovarian and with NCI-H23 lung was greater than 100 µM each time. For the same molecule, the TGI in the test with SK-MEL-2 melanoma and with ACHN renal was greater than 100 µM throughout.
With `COc1c(-c2cc(C)c(Cl)c(=O)[nH]2)c(O)c(OC)c2occc12`, the TGI in the test with UO-31 renal, in the test with SK-MEL-5 melanoma, in the test on PC-3 prostate, in the test on EKVX NSCLC, in the test on OVCAR-8 ovarian and in the test on NCI-H23 lung was greater than 100 µM each time. In addition, the TGI in the test with SK-MEL-2 melanoma and in the test on ACHN renal was greater than 100 µM each time.
As to `O=C1NN=C(c2ccc(Cl)cc2)CC1C1C(=O)N(c2ccccc2)N=C1c1ccccc1` (stereo unspecified), the TGI is 56.6 µM in the test on UO-31 renal; 72.3 µM with PC-3 prostate; greater than 100 µM in the test with EKVX NSCLC; 84.4 µM with A498 renal; greater than 100 µM with OVCAR-8 ovarian; 62.8 µM in the test on NCI-H23 lung. Moreover, the TGI is 78.7 µM with SK-MEL-2 melanoma and greater than 100 µM with ACHN renal.
Take `COC12C=C/C(=C(/C(=O)OCc3ccncn3)C(=O)CCCCCCCCC3(OC)C=C/C(=C(/C(=O)OCc4ccncn4)C(=O)CCCCCCCC1)O3)O2`: the GI50 in the test with PC-3 prostate was 0.305 µM; with EKVX NSCLC, 0.35 µM; in the test with A498 renal it was 0.252 µM; in the test with OVCAR-8 ovarian, 0.331 µM; with NCI-H23 lung, 0.293 µM; in the test on SK-MEL-2 melanoma it was 0.428 µM. In addition, in the test on ACHN renal, the GI50 was 0.302 µM. The TGI with PC-3 prostate stood at 1.09 µM; with EKVX NSCLC, 2.34 µM; in the test with A498 renal, 0.833 µM; in the test with OVCAR-8 ovarian, 14.9 µM; with NCI-H23 lung, 0.944 µM; in the test on SK-MEL-2 melanoma, 5.55 µM. Besides, in the test with ACHN renal, the TGI is 1.14 µM.
As to `O=S(=O)(c1cc(Cl)ccc1Cl)N1CCN(S(=O)(=O)c2cc(Cl)ccc2Cl)CC1`, the TGI with UO-31 renal was greater than 100 µM; with SK-MEL-5 melanoma it was greater than 100 µM; in the test with PC-3 prostate, greater than 100 µM; in the test with A498 renal, greater than 100 µM; in the test with OVCAR-8 ovarian, greater than 100 µM; in the test on NCI-H23 lung, 18.7 µM. Besides, the TGI in the test with SK-MEL-2 melanoma and with ACHN renal was greater than 100 µM each time.
For `C(=N\Nc1ncc(-c2cc3cc4c(cc3o2)OCO4)s1)/c1c[nH]c2ccccc12`, the GI50 in the test with UO-31 renal was 0.348 µM; with SK-MEL-5 melanoma, 1.66 µM; with PC-3 prostate, 0.519 µM; with EKVX NSCLC, 1.27 µM; in the test on OVCAR-8 ovarian, 1.65 µM; in the test with NCI-H23 lung it was 1.77 µM. For the same molecule, the GI50 in the test with SK-MEL-2 melanoma was 2.6 µM; in the test on ACHN renal, 0.86 µM. The TGI in the test with UO-31 renal is 1.57 µM; in the test on SK-MEL-5 melanoma, 3.23 µM; in the test with PC-3 prostate it was 6.2 µM; in the test on EKVX NSCLC, 6.44 µM; in the test with OVCAR-8 ovarian, greater than 100 µM; in the test on NCI-H23 lung it was 5.19 µM. The TGI in the test on SK-MEL-2 melanoma was found to be 8.07 µM; in the test with ACHN renal, 2.61 µM.
Turning to `CSC1=Nc2ccccc2-c2nc(-c3ccccc3)cc(-c3ccccc3)c2C1`, the TGI was 76.6 µM in the test with UO-31 renal; 75.1 µM in the test on SK-MEL-5 melanoma; greater than 100 µM in the test on PC-3 prostate; greater than 100 µM with EKVX NSCLC; greater than 100 µM in the test with A498 renal; greater than 100 µM in the test on OVCAR-8 ovarian. In addition, the TGI in the test on NCI-H23 lung was determined as 33.5 µM; in the test on ACHN renal it was 41.8 µM.
As for `CC(C)CC(=O)NC(Nc1ccc(S(=O)(=O)Nc2ncccn2)cc1)(C(F)(F)F)C(F)(F)F`, the TGI in the test on UO-31 renal, in the test on SK-MEL-5 melanoma, in the test on PC-3 prostate, with EKVX NSCLC, in the test on OVCAR-8 ovarian and in the test on NCI-H23 lung was greater than 100 µM in each case. Moreover, the TGI in the test with SK-MEL-2 melanoma and with ACHN renal was greater than 100 µM each time.
For `CCCC(Sc1nc(N)nc2nc[nH]c12)C(=O)O` (stereo unspecified), the TGI in the test with UO-31 renal, in the test with SK-MEL-5 melanoma, with PC-3 prostate, with A498 renal, in the test on OVCAR-8 ovarian and in the test with NCI-H23 lung was greater than 100 µM each time. The TGI with SK-MEL-2 melanoma and with ACHN renal was greater than 100 µM in each case.
Take `Oc1nc(N/N=C/c2c[nH]c3ccccc23)[nH]c1/C=C1\C=Nc2ccccc21`: the TGI in the test on SK-MEL-5 melanoma was 38.1 µM; with PC-3 prostate, 32 µM; in the test with EKVX NSCLC it was 89.6 µM; with A498 renal, 27.8 µM; in the test on OVCAR-8 ovarian it was 29.2 µM; with NCI-H23 lung, 38.5 µM. In addition, the results for the TGI with SK-MEL-2 melanoma and in the test with ACHN renal were 36.5 µM and 49.1 µM, respectively.
As to `CCN(CC)CCCCCCCCNc1c2ccc(Cl)cc2nc2ccc(OC)cc12`, the GI50 was 1.72 µM with UO-31 renal; 1.54 µM in the test on SK-MEL-5 melanoma; 1.64 µM in the test on PC-3 prostate; 2.11 µM in the test on EKVX NSCLC; 1.41 µM with A498 renal; 1.39 µM with OVCAR-8 ovarian. The GI50 was 2.28 µM in the test on NCI-H23 lung and 1.03 µM in the test on ACHN renal. The TGI with UO-31 renal was 4.34 µM; in the test on SK-MEL-5 melanoma, 2.89 µM; in the test on PC-3 prostate it was 4.06 µM; with EKVX NSCLC, 6.13 µM; with A498 renal, 2.78 µM; in the test with OVCAR-8 ovarian, 3.64 µM. Moreover, the TGI with NCI-H23 lung stood at 7.25 µM; in the test with ACHN renal, 2.5 µM.
As for `CC(=O)N1N=C(c2c(O)ccc3ccccc23)CC1C(=O)c1ccco1` (stereo unspecified), the TGI is greater than 100 µM in the test with UO-31 renal; 89.9 µM in the test on SK-MEL-5 melanoma; greater than 100 µM in the test with PC-3 prostate; greater than 100 µM in the test on A498 renal; greater than 100 µM in the test on OVCAR-8 ovarian; 84.6 µM in the test on NCI-H23 lung. The TGI with SK-MEL-2 melanoma was 43.1 µM; with ACHN renal, greater than 100 µM.
For `Cc1ccccc1N=C(N)NC#N`, the TGI in the test with UO-31 renal, with SK-MEL-5 melanoma, in the test with PC-3 prostate, in the test with EKVX NSCLC, with OVCAR-8 ovarian and in the test on NCI-H23 lung was greater than 100 µM each time. For the same molecule, the TGI with SK-MEL-2 melanoma and in the test on ACHN renal was greater than 100 µM each time.
